According to article PMC3847553, “Kinetic properties of “dual” orexin receptor antagonists at OX1R and OX2R orexin receptors” (Frontiers in Neuroscience, 2013):
Where two headings read alike, the source gives them in different places.

Assays:
human OX2R = molecular target: T1, human OX2R (Homo sapiens, UniProt O43614); test: FLIPR orexin A-stimulated calcium accumulation, human OX2R; assay type: cell-based; conditions: CHO cells
T1 construct: expressed in transfected cells; host or cells: CHO; cells from GNF, San Diego
T1 sequence (O43614 1-444): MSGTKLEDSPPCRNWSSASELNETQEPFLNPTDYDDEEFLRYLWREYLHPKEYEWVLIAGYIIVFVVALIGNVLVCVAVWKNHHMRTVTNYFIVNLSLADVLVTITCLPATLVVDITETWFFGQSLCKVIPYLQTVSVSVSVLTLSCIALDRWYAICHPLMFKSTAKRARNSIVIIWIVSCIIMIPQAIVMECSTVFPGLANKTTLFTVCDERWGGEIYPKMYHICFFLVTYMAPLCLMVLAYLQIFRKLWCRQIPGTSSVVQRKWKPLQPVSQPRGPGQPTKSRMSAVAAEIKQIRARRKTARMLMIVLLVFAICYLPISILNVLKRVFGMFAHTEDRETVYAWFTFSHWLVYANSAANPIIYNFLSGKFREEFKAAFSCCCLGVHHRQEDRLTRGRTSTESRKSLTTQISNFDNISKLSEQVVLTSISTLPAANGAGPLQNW
From the text: (§1) Chinese Hamster Ovary (CHO) cells stably transfected with the cDNA encoding the human OX1R (CHO-hOX1) or OX2R (CHO-hOX2) were used (kindly provided by T. Cremer and Dr. S. Geisse, NIBR Basel, Switzerland). For measurements of calcium accumulation using FLIPR® (Fluorescent Imaging Plate Reader) assay, CHO or Human Embryonic Kidney (HEK) cells stably expressing mouse, rat or human OX1R or OX2R (kindly provided by Dr. A. Chen, GNF, San Diego, CA, USA) were used. […] Cells were maintained in a humidified incubator at 37°C in 5% CO2. For crude cell membrane preparations, cells were washed and harvested in 10 mM HEPES (pH 7.5), and centrifuged at 4°C for 5 min at 2500 g. The cell pellet was either stored at −80°C or used directly.
(§2) Cells expressing either human, rat or mouse OX1R or OX2R were seeded at 8,000 cells/well in black 384 well clear bottom plates and incubated overnight at 37°C. The following day, medium was discarded and cells loaded with 50 μ l of 1 mM Fluo-4 AM (Invitrogen F14202) in dimethyl sulfoxide in working buffer (Hanks' balanced salt solution, 10 mM HEPES) and incubated for 60 min at 37°C. The loading buffer was removed and cells were washed with 100 μ l working buffer containing […], 0.1% BSA, and 2.5 mM Probenecid (pH 7.4) to remove the excess Fluo-4 AM. […] The assay plate was then transferred to the Molecular Devices-FLIPR384. The baseline calcium signal was recorded for 10 s, then the antagonist of interest was injected (10 μl at 3 times the final concentration) and the calcium signal recorded every second for 1 min, then every 2 s 40 times.

mouse OX2R = molecular target: T2, mouse OX2R (Mus musculus, UniProt P58308); test: FLIPR orexin A-stimulated calcium accumulation, mouse OX2R; assay type: cell-based; conditions: HEK cells
T2 construct: expressed in transfected cells; host or cells: HEK; cells from GNF, San Diego
T2 sequence (P58308 1-460): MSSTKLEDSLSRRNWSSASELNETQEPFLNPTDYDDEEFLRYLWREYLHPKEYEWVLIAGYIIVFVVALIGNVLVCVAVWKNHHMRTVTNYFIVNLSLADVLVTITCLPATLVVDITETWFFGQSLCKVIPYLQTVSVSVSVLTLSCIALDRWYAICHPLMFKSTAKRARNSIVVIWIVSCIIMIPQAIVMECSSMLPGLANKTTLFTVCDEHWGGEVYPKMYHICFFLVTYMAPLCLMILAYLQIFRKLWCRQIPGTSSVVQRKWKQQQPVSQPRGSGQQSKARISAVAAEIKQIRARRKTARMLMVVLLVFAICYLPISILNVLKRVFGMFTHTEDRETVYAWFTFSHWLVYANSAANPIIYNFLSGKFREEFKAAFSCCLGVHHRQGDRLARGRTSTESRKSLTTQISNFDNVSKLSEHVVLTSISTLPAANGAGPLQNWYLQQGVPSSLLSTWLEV
From the text: as §1, §2

human OX1R = molecular target: T3, human OX1R (Homo sapiens, UniProt O43613); test: [3H]-BBAC competition binding over time, CHO-hOX1 membranes
T3 construct: expressed in transfected cells; host or cells: CHO; cells from GNF, San Diego
T3 sequence (O43613 1-425): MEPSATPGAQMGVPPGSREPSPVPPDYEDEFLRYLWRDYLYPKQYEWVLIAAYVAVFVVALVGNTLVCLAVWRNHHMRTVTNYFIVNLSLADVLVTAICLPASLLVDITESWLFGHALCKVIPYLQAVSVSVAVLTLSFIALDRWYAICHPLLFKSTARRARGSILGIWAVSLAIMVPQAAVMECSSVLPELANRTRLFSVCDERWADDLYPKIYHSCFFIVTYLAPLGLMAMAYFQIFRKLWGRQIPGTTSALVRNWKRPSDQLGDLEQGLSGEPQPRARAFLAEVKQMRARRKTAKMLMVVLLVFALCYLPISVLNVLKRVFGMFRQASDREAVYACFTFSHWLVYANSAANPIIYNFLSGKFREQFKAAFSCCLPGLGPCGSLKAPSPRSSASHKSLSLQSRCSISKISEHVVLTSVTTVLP
From the text: as §1
Cell membranes were resuspended in binding assay buffer at 4°C (10 mM HEPES, pH 7.5, 0.5% (w/v) bovine serum albumin (BSA), 5 mM MgCl2, 1 mM CaCl2, and 0.05% Tween 20) and homogenized with a Polytron homogenizer at 50 Hz for 20 s. […] Radioactivity was quantified using a TopCount™ microplate counter (Perkin Elmer).
All data was analyzed using GraphPad Prism 4.0 (GraphPad, San Diego, USA). The saturation data was fit to a non-linear regression model for saturation binding with consideration for one site binding. […] Competition binding data was fit to a non-linear regression model for competition binding with consideration for variable one site binding with a non-fixed Hill slope.

[1] = antagonist incubation 1 h, read-out: pKi (converted)
[2] = antagonist incubation 2 h, read-out: pKi (converted)
[3] = antagonist incubation 4 h, read-out: pKi (converted)
[4] = pKi, antagonist incubation 30 min
[5] = antagonist incubation 30 min, read-out: pKi (converted)
[6] = competition for 4.6 nM [3H]-BBAC, 15 min to 4 h, human OX1R

Row | SMILES | pKi (human OX2R; antagonist incubation 30 min) | Ki (human OX2R; antagonist incubation 1 h) | Ki (human OX2R; antagonist incubation 2 h) | Ki (human OX2R; antagonist incubation 4 h) | Ki (mouse OX2R; [1]) | Ki (mouse OX2R; [2]) | Ki (mouse OX2R; [3]) | Ki (mouse OX2R; [4]) | effect of incubation time on competition curves (human OX1R) | Ki (human OX2R; antagonist incubation 30 min) | Ki (mouse OX2R; [5]) | effect of incubation time on competition curves (human OX1R; [6]) | Ki (mouse OX2R; pKi, antagonist incubation 1 h) | Ki (mouse OX2R; pKi, antagonist incubation 2 h) | Ki (mouse OX2R; pKi, antagonist incubation 4 h)
1 | CNC(=O)[C@@H](c1ccccc1)N1CCc2cc(OC)c(OC)cc2[C@@H]1CCc1ccc(C(F)(F)F)cc1 [Almorexant] | 8.33 −log M | 1.51 nM | 1.58 nM | 0.813 nM | 9.33 nM | 8.13 nM | 4.17 nM | 19.1 nM | shifted to the left with time moderately |  |  |  |  |  | 
2 | Cc1ccc(-c2ncccn2)c(C(=O)N2C[C@H](COc3ccc(F)cn3)CC[C@H]2C)c1 [Filorexant] |  | 0.224 nM | 0.186 nM | 0.17 nM | 2.09 nM | 1.45 nM | 1.29 nM |  |  | 0.355 nM | 2.14 nM | rather insensitive to incubation time |  |  | 
3 | COc1ccnc(N2CCC3(CCCN(Cc4c[nH]c5ccccc45)C3=O)CC2)n1 [IPSU, 2-((1H-Indol-3-yl)methyl)-9-(4-methoxypyrimidin-2-yl)-2,9-diazaspiro[5.5]undecan-1-one] |  | 10.7 nM | 15.1 nM | 20.9 nM | 79.4 nM | 55 nM | 60.3 nM |  |  | 10 nM | 70.8 nM | do not show time-dependency |  |  | 
4 | Cc1nc(C(=O)N2CCCC[C@H]2CNC(=O)c2cccc3occc23)c(-c2ccc(F)cc2)s1 [SB-649868] |  | 0.372 nM | 0.17 nM | 0.151 nM | 2.82 nM | 1.17 nM | 0.912 nM |  |  | 0.302 nM | 1.82 nM | shifted to the left over time up to 4 h |  |  | 
5 | Cc1ccc(-n2nccn2)c(C(=O)N2CCN(c3nc4cc(Cl)ccc4o3)CC[C@H]2C)c1 [Suvorexant] |  |  |  |  |  |  |  | 10.2 nM | shifted to the left over time |  |  |  | 6.76 nM | 5.75 nM | 4.47 nM
